# Source: US5807827A, “Des-Tyr dynorphin analogues” (Des-Tyr Dynorphin Partnership, priority 1997, dated 1998)
# Ends that are not written are not given here.
# What was measured:
# [1] = system: morphine tolerant (that is, addicted) mice; test: Tail-flick antinociceptive activity of morphine in morphine tolerant animals; type: in vivo; conditions: control 2: addicted animals, no peptide
# Protocol: (§1) Analgesia was measured by the tail-flick method of D'Amour and Smith, J. Pharmac. Exp. Ther. , 72, pp. 74-79 (1941), incorporated herein by reference, as modified by Tulunay and Takemori, J. Pharmac. Exp. Ther., 190, pp. 395-400 (1974), incorporated herein by reference. For ED50 (e.g., effective does for 50% of the test group) determinations, the animals' responses were made quantal by establishing an endpoint which represented a significant increase in reaction time. The endpoint was an increase in reaction time of an individual animal of greater than 3 SD (e.g., standard deviation) of the control mean reaction time for all animals used in the assay. The usual control mean reaction time was 3.1±0.05 sec. Nonresponding animals were removed from the heat stimulus when reaction time exceeded 10 sec. to avoid tail damage.
# (§2) Drugs were injected 30 minutes prior to testing, unless otherwise indicated. Morphine was injected subcutaneously (s.c.) whereas the peptides were injected (i.v.) in […] saline.
# (§3) Morphine tolerance was established by implanting morphine pellets, 75 mg base, subcutaneously by the method of Way et al., J. Pharmac. Exp. Ther., 167, pp. 1-8 (1969), incorporated herein by reference. The drug used was morphine sulfate (Mallinckrodt Chemical Works, St. Louis, Mo.). […]
# [2] = system: naive, unaddicted (that is, normal) animals; test: Tail-flick antinociceptive activity of morphine in naive animals; type: in vivo, mice; conditions: control 1: naive, no peptide
# Protocol: as §1, §2, §3
# [3] = system: macrophage-colony stimulating factor; conditions: mice treated with chronic morphine; cited from earlier work
# [4] = system: hosts tolerant to narcotic analgesic; conditions: cited from earlier work
# opioid receptor = conditions: cited from earlier work
# [5] = system: morphine tolerant (addicted) animals; test: Naloxone-precipitated narcotic withdrawal (withdrawal jumping) in morphine pellet-implanted animals; type: in vivo, mice
# Protocol: Morphine tolerance was established by implanting morphine pellets, 75 mg base, subcutaneously by the method of Way et al., J. Pharmac. Exp. Ther., 167, pp. 1-8 (1969), incorporated herein by reference. The drug used was morphine sulfate (Mallinckrodt Chemical Works, St. Louis, Mo.). The ED50 values, their 95% confidence limits and significance of the potency ratio between two ED50. values were determined by the method of Litchfield and Wilcoxon, J. Pharmac. Exp. Ther., 96, 99-113 (1949), incorporated herein by reference.
# The morphine tolerant (addicted) animals had pellets implanted for three days. The animals were then challenged with naloxone doses (while the morphine pellet remained in place). […] Table 1 summarizes the data for the control animals and for groups of animals treated with three different peptides. Each peptide was in a dose of 5 μmol/kg i.v. before administration of the naloxone.
# However, when any of the three peptides shown in Table 1 was administered five minutes before administration of the naloxone, then much more naloxone was needed to precipitate the animal into a state of narcotic withdrawal. This means that each of the three peptides shown in Table 1 caused the addicted animal to be not as dependent on morphine as it would be without such pretreatment.
# The animals and test procedures used were analogous to those described in Example 1. […]
molecule,measurement,setting,value
"CN1CC[C@]23c4c5ccc(O)c4O[C@H]2[C@@H](O)C=C[C@H]3[C@H]1C5 [Morphine, morphine]",Tolerance Index,[1]; relative to naive control,8.5 (5.7-12.--)
same,Morphine ED50,[1]; tail flick,55.6 (42.6-73.5) μmol/kg s.c.
same,Morphine ED50,[2],6.5 (5.0-8.9) μmol/kg s.c.
Tyr-Gly-Gly-Phe-Leu-Arg-Arg-Ile-Arg-Pro (YGGFLRRIRP-NH2) [SEQ ID NO:3],Block of opioid inhibition of macrophage-colony stimulating factor,[3],block the opioid inhibition of macrophage-colony stimulating factor of morphine in a dose-dependent manner
Tyr-Gly-Gly-Phe-Leu-Arg-Arg-Ile-Arg-Pro-Lys-Leu-Lys (YGGFLRRIRPKLK) [SEQ ID NO:2],Block of opioid inhibition of macrophage-colony stimulating factor,[3],block the opioid inhibition of macrophage-colony stimulating factor of morphine in a dose-dependent manner
same,Effect on analgesic effect of narcotic analgesic,[4],potentiates the analgesic effect in tolerant hosts
Gly-Gly-Phe-Leu-Arg-Arg-Ile-Arg-Pro-Lys-Leu-Lys [des-Tyr Dyn A (1-13)],Competition in assays with various ligands,opioid receptor,did not compete at all
"C=CCN1CC[C@]23c4c5ccc(O)c4O[C@H]2C(=O)CC[C@@]3(O)[C@H]1C5 [Naloxone, naloxone]",ED50,"[5]; Mus musculus, control addicted animals, no peptide (base line)",79 µmol/kg
"GFLRRIRPKLK [Dyn (3-13), Gly-Phe-Leu-Arg-Arg-Ile-Arg-Pro-Lys-Leu-Lys]",Observed behaviour of treated animals,[5]; Example 3,lethargic and exhibited partial paralysis of their hind quarters
